Laboratory results reported in patent EP4711371A1 (priority 2023, dated 2024).
Like-named read-outs stand apart in the source and are kept apart here.

Key:
Format in all cases: cell-based
[1] = system: SK-BR-3; assay: In vitro proliferation inhibition assay of camptothecin derivatives (Payload), Test Example 1; settings: Homo sapiens, SK-BR-3, 96 h, read-out: SK-BR-3 IC50
Excerpt: (§1) The control compounds used in the experiment were DXD (synthesized from EXD according to the synthesis method of patent EP2907824B1. EXD was purchased from MedChemExpress, catalog number: HY-13631A) and SN38 (purchased from Bide Pharmatech, catalog number BD8481). Their structural formulas are [drawing 515] respectively.
(§2) The cell lines used in this experiment were human breast cancer cells SK-BR-3, T47D, MDA-MB-453, human malignant melanoma cells A375, human lung squamous carcinoma cells NCI-H1703, and human gastric cancer cells NCI-N87. Cell suspensions were prepared in fresh cell culture medium containing 10% FBS and then diluted to a density of 5 × 10^4 cells/mL, 10×10^4 cells/mL, 100 µL per well was added to a 96-well cell culture plate (Thermo catalog number: 167425), and cultured at 37°C with 5% carbon dioxide for 24 h.
(§3) The test compounds of the present invention and the control compounds were each prepared to 10 mM stock solutions in DMSO, and the drugs were diluted with 5% FBS 1640 culture medium in a gradient of 50, 10, 2, 0.4, 0.08, 0.016, 0.0032, 0.00064, 0.000128, and 0 µM, with two replicates for each well.
(§4) 50 µL of cell supernatant was pipetted from each 96-well plate, followed by the addition of 50 µL of compound dilutions at final […] of 25, 5, 1, 0.2, 0.04, 0.008, 0.0016, 0.00032, 0.000064, and 0 µM. After mixing, the cells were cultured in a constant temperature CO2 incubator for 4 days. Cell supernatant was then added with 100 µL of detection reagent (5% FBS1640 medium and CCK-8 solution in a 10:1 ratio) and incubated in an incubator for 4 hours. […] was read on a microplate reader (TECAN, Spark), and data were analyzed using Graphpad Prism 8 software.

[2] = system: NCI-N87; assay: as above; settings: Homo sapiens, NCI-N87, 96 h, read-out: NCI-N87 IC50
Excerpt: as §1, §2, §3, §4

[3] = system: A375; assay: as above; settings: Homo sapiens, A-375, 96 h, read-out: A375 IC50
Excerpt: as §1, §2, §3, §4

[4] = system: MDA-MB-453; assay: as above; settings: Homo sapiens, MDA-MB-453, 96 h, read-out: MDA-MB-453 IC50
Excerpt: as §1, §2, §3, §4

[5] = system: NCI-H1703; assay: as above; settings: Homo sapiens, NCI-H1703, 96 h, read-out: NCI-H1703 IC50
Excerpt: as §1, §2, §3, §4

[6] = system: T47D; assay: cells; settings: Homo sapiens, 96 h
Excerpt: as §1, §2, §3, §4

[7] = system: T47D; assay: cells; settings: Homo sapiens, 120 h, read-out: T47D IC50
Experimental: (§5) Test Example 2 In vitro proliferation inhibition assay of the camptothecin derivatives (Payload) of the present invention on tumor cells 1. Instruments and Reagents
(§6) 2. Experimental Procedure • a. Plating & culture: MDA-MB-453 (purchased from: Xiehe, catalog number: 1101HUM-PUMCO00016)/T47D (Kebai, CBP60397)/HT1376 cells (purchased from: Kebai, catalog number: CBP60310) were cultured into 96-well plates by a density of 1×10^3 /2×10^3 /1×10^3 cells per100 µL, and 200 µL of PBS was added to the outermost circle (to reduce the volatilization of the culture medium), and cultured at 37°C, 5% CO2 incubator for 24 h; • b. Drug Addition & Incubation: The 96-well flat-bottom plate was retrieved. The culture medium in the wells was aspirated, and 100 µL of the ADC drug/payload (diluted in culture medium) was added to each well. The plate was then incubated at 37°C, 5% CO2 incubator for 5 days. 3. Detection and data processing • a. The 96-well plate was retrieved. The culture medium was removed, and 100 µL of detection reagent (CCK8:medium= 1:9) was added to each well. The plate was then placed in a 37°C, 5% CO2 incubator for 4 hours; • b. The optical density (OD) at 450 nm was measured using a microplate reader (model: CEY0017), and the data was recorded with Excel. • c. Graphpad Prism 9.0 was used to analyze and organize the data.

[8] = system: HT1376; assay: In vitro proliferation inhibition assay of camptothecin derivatives (Payload), Test Example 2; settings: Homo sapiens, HT-1376, 120 h, read-out: HT1376 IC50
Experimental: as §5, §6

[9] = system: MDA-MB-453; assay: as above; settings: Homo sapiens, MDA-MB-453, 120 h, read-out: MDA-MB-453 IC50
Experimental: as §5, §6

[10] = payload, cultured 4 days, CCK-8
[11] = payload, cultured 4 days, CCK-8, ~ indicates estimated IC50 value
[12] = payload, cultured 4 days, CCK-8, read-out: T47D IC50

| SMILES | IC50 [1, 10] [nM] | IC50 [2, 10] [nM] | IC50 [1] [nM] | IC50 [2] [nM] | IC50 [4, 10] [nM] | IC50 ([6]; read-out: T47D IC50) [nM] | other results |
| --- | --- | --- | --- | --- | --- | --- | --- |
| CC[C@@]1(OC(=O)CCN2CCN(C)CC2)C(=O)OCc2c1cc1n(c2=O)Cc2c-1nc1cc(F)c(C)c3c1c2[C@@H](N)CC3 [Compound 2] | 1.56 | 3.75 | – | – | – | – | – |
| CCC1(OC(=O)Cc2ccc(OC3OC(CO)C(O)C(O)C3O)cc2)C(=O)OCc2c1cc1n(c2=O)Cc2c-1nc1cc(F)c(C)c3c1c2C(N)CC3 (stereo not drawn) [Compound 3] | – | – | 1.04 | 1.91 | – | – | – |
| CC[C@@]1(OC(=O)CCN2C(=O)c3ccccc3C2=O)C(=O)OCc2c1cc1n(c2=O)Cc2c-1nc1cc(F)c(C)c3c1c2[C@@H](N)CC3 [Compound 4] | 183 | 381 | – | – | – | – | – |
| CC[C@@]1(OC(=O)Cn2cc(F)c(=O)[nH]c2=O)C(=O)OCc2c1cc1n(c2=O)Cc2c-1nc1cc(F)c(C)c3c1c2[C@@H](N)CC3 [Compound 6] | 1.23 | 2.23 | – | – | 4.24 | – | IC50 [3, 11]: 0.164 nM; IC50 [5, 10]: 0.59 nM; IC50 [6, 12]: 0.742 nM |
| CC[C@@]1(OC(=O)CCOCCOCCOCCOC)C(=O)OCc2c1cc1n(c2=O)Cc2c-1nc1cc(F)c(C)c3c1c2[C@@H](N)CC3 [Compound 7] | – | – | – | – | 570 | – | IC50 [3, 11]: 0.714 nM; IC50 [5, 10]: 0.064 nM; IC50 [6, 12]: 245 nM |
| CC[C@@]1(OC(=O)COc2ccc(Cl)cc2C)C(=O)OCc2c1cc1n(c2=O)Cc2c-1nc1cc(F)c(C)c3c1c2[C@@H](N)CC3 [Compound 9] | – | – | – | – | 3.86 | – | IC50 [5, 10]: 0.149 nM; IC50 [6, 12]: 0.804 nM |
| CC[C@@]1(O)C(=O)OCc2c1cc1n(c2=S)Cc2c-1nc1cc(F)c(C)cc1c2CN [Compound 11] | – | – | 0.906 | 1.56 | – | – | IC50 [7]: 0.141 nM; IC50 [8]: 3.85 nM; IC50 [9]: 0.645 nM |
| CC[C@@]1(O)C(=O)OCc2c1cc1n(c2=S)Cc2c-1nc1cc(F)c(C)cc1c2CNC(=O)CO [Compound 17] | – | – | 0.675 | 0.999 | – | 0.172 | IC50 [4]: 1.14 nM |
| CC[C@@]1(O)C(=O)OCc2c1cc1n(c2=O)Cc2c-1nc1cc(F)c(C)c3c1c2[C@@H](NC(=O)CO)CC3 [DXD, Dxd, reference compound] | – | – | 3.62 | 5.97 | – | 1.02 | IC50 [3]: 0.131 nM; IC50 [4]: 2.87 nM; IC50 [5]: 0.472 nM |
| CC[C@@]1(O)C(=O)OCc2c1cc1n(c2=O)Cc2c-1nc1cc(F)c(C)c3c1c2[C@@H](N)CC3 [EXD, Exatecan, reference compound] | – | – | 0.866 | 1.45 | – | 0.729 | IC50 [7]: 0.221 nM; IC50 [4]: 1.02 nM; IC50 [5]: 0.00789 nM; IC50 [8]: 8.71 nM; IC50 [9]: 0.902 nM |
| CC[C@@]1(O)C(=O)OCc2c1cc1n(c2=S)Cc2cc3cc(N)c(F)cc3nc2-1 [Example 46] | – | – | 0.0155 | 0.229 | – | – | – |
| CCc1c2c(nc3ccc(O)cc13)-c1cc3c(c(=O)n1C2)COC(=O)[C@]3(O)CC [SN38, SN-38, reference compound] | 2.51 | 5.38 | – | – | 32.8 | 2.11 | – |
